Where a chain is given by its changes, count along the chain named. In names and notes the source's numbering stands. Values belong to the molecule of their own block, whether it stands above or below them.
Assays:
[1] = system: PLK1 phosphorylation; test: Western blot of PLK1 activation/phosphorylation in mitotic cells; assay type: cell-based, human
Method: (§1) Cells were synchronized at GUS boundary by a double thymidine block. Briefly, cells cultured in a medium containing 2 mM thymidine for 16 hr were released into a normal medium for 8 hr, subjected to a second thymidine block for 16 hr, and then released into a fresh medium again. Alternatively, cells were synchronized at prometaphase by a thymidine-nocodazole arrest (an 18-hr thymidine arrest and a 5-hr release, followed by a 5-hr 100 ng/mL nocodazole arrest).

[2] = system: RXRα shift; test: Western blot of RXRα mobility shift (phosphorylation) in mitotic HeLa cells treated with inhibitors; assay type: cell-based, human; details: for RXRα shift (mobility shift on SDS-PAGE, WB): mitotic HeLa cells released from TT block, inhibitors for 15 min (FIG. 16)
Method: as §1

[3] = target: T1, p-RXRα and PLK1 at the centrosome (Homo sapiens, UniProt P19793); test: In situ proximity ligation assay (PLA) in HepG2 cells; assay type: cell-based; details: RO-3306 10 μM for 30 min or compound A1 10 μM for 2 hr (FIG. 56)
T1 construct: endogenous in cells; host or cells: HepG2
T1 sequence (P19793 1-462): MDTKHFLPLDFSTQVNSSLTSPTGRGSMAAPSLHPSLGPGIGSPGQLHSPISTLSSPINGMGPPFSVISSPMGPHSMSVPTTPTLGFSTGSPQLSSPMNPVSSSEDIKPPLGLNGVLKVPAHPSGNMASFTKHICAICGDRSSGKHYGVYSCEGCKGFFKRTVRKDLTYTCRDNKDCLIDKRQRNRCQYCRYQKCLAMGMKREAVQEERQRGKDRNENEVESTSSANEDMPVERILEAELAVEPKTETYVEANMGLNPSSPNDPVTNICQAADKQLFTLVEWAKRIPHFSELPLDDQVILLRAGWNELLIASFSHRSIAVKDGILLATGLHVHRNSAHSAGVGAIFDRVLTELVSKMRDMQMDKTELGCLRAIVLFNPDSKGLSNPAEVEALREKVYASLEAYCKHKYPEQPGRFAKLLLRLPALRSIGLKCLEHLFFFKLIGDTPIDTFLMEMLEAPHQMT
Method: An in situ proximity ligation assay (PLA) was performed in HeLa cells and HepG2 by using a DOULINK™ assay kit. Briefly, cells mounted on glass slides were fixed with methanol at −20° C. for 5 min, then permeabilized with 0.05% Triton X-100 in a PBS buffer for 8 min at 4° C., and blocked with a blocking solution for 60 min at 37° C., followed by incubation with primary antibodies for 60 min at 37° C. The slides were then washed three times with wash buffer A, and PLA labeled secondary antibodies (anti-mouse, minus; anti-rabbit, plus) were added and incubated for 60 min at 37° C. The slides were washed two times with wash buffer A and a ligation solution including a ligase was added for 30 min at 37° C. After ligation, the slides were washed two times with wash buffer A and followed by incubation with an amplification buffer including a polymerase for 100 min at 37° C. After amplification, the slides were washed two times with 1×wash buffer B and one time in 0.01×wash buffer B. Finally, the slides were mounted using a minimal volume of a mounting medium with DAPI and analyzed in a confocal microscope after 15 min.

[4] = system: centrosomal localization of pS56-RXRα or RXRα; test: Immunostaining of centrosomal localization of pS56-RXRα or RXRα in metaphase HeLa cells; assay type: cell-based, human; details: metaphase HeLa cells (FIG. 33)
Method: Cells mounted on glass slides were fixed with methanol at −20° C. for 10 min, then permeabilized with 0.05% Triton X-100 in a PBS buffer for 8 min at 4° C., and blocked with 1% bovine serum in PBS for 30 min at room temperature, followed by incubation with primary antibodies at room temperature for 3 hr and detected by FITC-labeled anti-IgG (1:200), anti-goat IgG conjugated with Cy3 (1:200) at room temperature for 1 hr. The cells were costained with 40,6-diamidino-2-phenylindole (DAPI) (1:10,000 dilution) to visualize nuclei. The images were taken under a LEICA TCS SP8 confocal laser scanning microscope system or an LSM-510 confocal laser scanning microscope system.

[5] = system: cancer cells; test: Mitotic progression of cancer cells (FACS analysis); assay type: cell-based
Method: Cells were harvested by trypsin digestion, washed with PBS, and fixed with ice-cold 70% ethanol overnight at 4° C. The fixed cells were then washed twice in PBS and treated for 10 min at room temperature with 0.5 μg/mL 4-6-diamidino-2-phenylindole (DAPI) in PBS and analyzed on a FACSCAN™ flow cytometer. Flow cytometry data were analyzed using CYTEXPERT.

[6] = system: QSG-7701 cells; test: Western blot analysis of QSG-7701 normal liver cells; assay type: cell-based, human; details: 12 hr (FIG. 61)
[7] = target: T2, polo-like kinase 1 (PLK1), full-length (human, UniProt P53350 1-603); test: CoIP in HeLa cells (FIG. 5)
T2 construct: Endogenous, FLAG-tagged and His-tagged forms are merged here; also called FLAG-PLK1; Flag-PLK1
T2 sequence (P53350 whole entry): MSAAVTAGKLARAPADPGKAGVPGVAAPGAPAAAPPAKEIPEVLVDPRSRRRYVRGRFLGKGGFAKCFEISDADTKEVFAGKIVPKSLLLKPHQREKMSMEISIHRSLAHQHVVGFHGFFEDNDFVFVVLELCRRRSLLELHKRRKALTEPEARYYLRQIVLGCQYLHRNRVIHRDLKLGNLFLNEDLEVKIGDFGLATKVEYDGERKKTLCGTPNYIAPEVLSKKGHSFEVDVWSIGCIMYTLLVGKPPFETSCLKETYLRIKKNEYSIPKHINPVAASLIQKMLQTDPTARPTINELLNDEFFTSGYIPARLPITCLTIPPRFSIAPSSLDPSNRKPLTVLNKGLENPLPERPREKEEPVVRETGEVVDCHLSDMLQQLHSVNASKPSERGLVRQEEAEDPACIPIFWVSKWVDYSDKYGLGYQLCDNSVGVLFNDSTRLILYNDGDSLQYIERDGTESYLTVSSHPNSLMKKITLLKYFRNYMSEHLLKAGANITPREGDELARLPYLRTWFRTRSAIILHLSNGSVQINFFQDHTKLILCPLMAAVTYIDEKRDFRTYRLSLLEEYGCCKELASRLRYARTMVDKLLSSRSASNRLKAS

[8] = target: T3, retinoic acid receptor-γ (RARγ) (UniProt P13631 1-454, limits assumed); test: co-immunoprecipitation from HeLa cells (IP: FLAG, WB: Myc)
T3 construct: also called FLAG-RARγ
T3 sequence (looked up): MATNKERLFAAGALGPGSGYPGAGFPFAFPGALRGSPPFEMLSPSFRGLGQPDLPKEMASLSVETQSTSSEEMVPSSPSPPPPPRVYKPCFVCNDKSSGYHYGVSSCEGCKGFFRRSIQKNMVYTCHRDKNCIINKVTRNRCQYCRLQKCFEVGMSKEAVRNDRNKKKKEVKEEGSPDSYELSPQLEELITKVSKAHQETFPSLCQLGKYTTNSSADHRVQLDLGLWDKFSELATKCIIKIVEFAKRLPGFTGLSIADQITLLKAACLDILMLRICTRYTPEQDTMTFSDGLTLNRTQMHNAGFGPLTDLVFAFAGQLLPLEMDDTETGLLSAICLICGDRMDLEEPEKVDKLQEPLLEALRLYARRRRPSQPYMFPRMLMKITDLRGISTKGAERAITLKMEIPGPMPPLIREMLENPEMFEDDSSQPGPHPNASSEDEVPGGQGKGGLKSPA

[9] = target: T3, retinoic acid receptor-γ (RARγ); test: CoIP in HeLa cells (FIG. 3)
[10] = target: T2, polo-like kinase 1 (PLK1), full-length; test: CoIP in HeLa cells (FIG. 3)
[11] = target: T2, polo-like kinase 1 (PLK1), full-length; test: CoIP of FLAG-PLK1 with Myc-RXRα mutants in HeLa cells (FIG. 27)
[12] = target: T4, modified (phosphorylated) RXRα, mobility-shifted form (human, UniProt P19793 1-462, phosphoserine at 56 (as in SEQ ID NO: 1) and phosphoserine at 70 (MS/MS)); test: CoIP of PLK1-KD or PLK1-PBD with RXRα in HeLa cells (FIG. 6)
T4 construct: Cdk1-phosphorylated form with reduced mobility on SDS-PAGE; Endogenous and Myc-, FLAG-, GST-tagged forms are merged; also called m-RXRα; p-RXRα
T4 sequence: T1 sequence (P19793 1-462)

[13] = target: T5, regular 55 kDa RXRα (unmodified form) (human, UniProt P19793 1-462); test: co-immunoprecipitation from HeLa cells (IP: FLAG, WB: Myc)
T5 construct: Non-shifted band of RXRα; Endogenous and tagged (Myc, FLAG, GST) forms are merged; also called regular RXRα; GST-RXRα (not phosphorylated)
T5 sequence: T1 sequence (P19793 1-462)

[14] = target: T2, polo-like kinase 1 (PLK1), full-length; test: CoIP in HeLa cells (FIG. 4)

Molecule: Cc1cc(Nc2cc(N3CCN(C)CC3)nc(Sc3ccc(NC(=O)C4CC4)cc3)n2)n[nH]1 [VX680]
PLK1 activation / PLK1 phosphorylation [1]: attenuated

Molecule: CN1CC[C@H](c2c(O)cc(O)c3c(=O)cc(-c4ccccc4Cl)oc23)[C@H](O)C1 [flavopiridol]
RXRα shift (mobility shift on SDS-PAGE, WB) [2]: strongly inhibited RXRα shift in a dose dependent manner

Molecule: Oc1c2ccccc2c2c3c(cccc13)N=N2 [SP600125]
RXRα shift (mobility shift on SDS-PAGE, WB) [2]: no effect

in situ interaction between p-RXRα and PLK1 at the centrosome (PLA) [3]: inhibited the in situ interaction
Molecule: O=C1NC(=NCc2cccs2)S/C1=C\c1ccc2ncccc2c1 [RO-3306]
PLK1 activation / PLK1 phosphorylation [1]: reduced PLK1 phosphorylation in a dose dependent manner
centrosomal RXRα staining by the regular anti-RXRα antibody [4]: inhibited centrosomal RXRα staining
centrosomal staining by the anti-pS56-RXRα antibody [4]: eliminated centrosomal staining by the antibody
level of p-RXRα detected by the anti-pS56-RXRα antibody ([2]; mitotic HeLa cells): reduced
RXRα shift (mobility shift on SDS-PAGE, WB) [2]: strongly inhibited RXRα shift in a dose dependent manner

Molecule: CC1=CC(=O)C(C(C)C)=C/C1=N/OC(=O)c1ccccc1C [poloxin]
mitotic progression of cancer cells [5]: inhibited mitotic progression of cancer cells

Molecule: CC[C@@H]1C(=O)N(C)c2cnc(Nc3ccc(C(=O)NC4CCN(C)CC4)cc3OC)nc2N1C1CCCC1 [BI2536]
inducing mitosis arrest [5]: inducing mitosis arrest
mitotic progression of cancer cells [5]: inhibited mitotic progression of cancer cells
RXRα shift (mobility shift on SDS-PAGE, WB) [2]: did not inhibit
effect in p-RXRα-negative noncancerous QSG-7701 cells [6]: active even in QSG-7701 cells

Molecule: CC(=O)c1c(C)c2cnc(Nc3ccc(N4CCNCC4)cn3)nc2n(C2CCCC2)c1=O [palbociclib]
RXRα shift (mobility shift on SDS-PAGE, WB) [2]: no effect

binding result [7]: no binding
B1: RXRα mutant lacking the N-terminal A/B domain (receptor)
chain: CAICGDRSSGKHYGVYSCEGCKGFFKRTVRKDLTYTCRDNKDCLIDKRQRNRCQYCRYQKCLAMGMKREAVQEERQRGKDRNENEVESTSSANEDMPVERILEAELAVEPKTETYVEANMGLNPSSPNDPVTNICQAADKQLFTLVEWAKRIPHFSELPLDDQVILLRAGWNELLIASFSHRSIAVKDGILLATGLHVHRNSAHSAGVGAIFDRVLTELVSKMRDMQMDKTELGCLRAIVLFNPDSKGLSNPAEVEALREKVYASLEAYCKHKYPEQPGRFAKLLLRLPALRSIGLKCLEHLFFFKLIGDTPIDTFLMEMLEAPHQMT
notes: also called RXRα-AA/B (so in the source)

binding result [8]: no binding
B2: RXRα-1-235, regular form (receptor)
chain: MDTKHFLPLDFSTQVNSSLTSPTGRGSMAAPSLHPSLGPGIGSPGQLHSPISTLSSPINGMGPPFSVISSPMGPHSMSVPTTPTLGFSTGSPQLSSPMNPVSSSEDIKPPLGLNGVLKVPAHPSGNMASFTKHICAICGDRSSGKHYGVYSCEGCKGFFKRTVRKDLTYTCRDNKDCLIDKRQRNRCQYCRYQKCLAMGMKREAVQEERQRGKDRNENEVESTSSANEDMPVERI

binding result [9]: no binding
binding result [10]: binds
B3: RXRα-1-235, modified form with mobility shift (receptor)
chain: B2 chain
modifications: phosphorylated (mobility-shifted); sites not stated for this construct
notes: A/B domain plus DBD

binding result [11]: no binding
B4: RXRα-S56A/S70A (RXRα-2A) (receptor)
chain: T1 sequence (P19793 1-462) with S56A, S70A
notes: Myc-tagged (CoIP) and GST-fused (kinase assay) forms are merged; also called RXR-S56A/S70A(2A); GST-RXRα-2A

binding result [12]: no binding
binding result [13]: no binding
B5: PLK1-KD (N-terminal kinase domain of PLK1) (enzyme, UniProt P53350 1-326, looked up)
chain: MSAAVTAGKLARAPADPGKAGVPGVAAPGAPAAAPPAKEIPEVLVDPRSRRRYVRGRFLGKGGFAKCFEISDADTKEVFAGKIVPKSLLLKPHQREKMSMEISIHRSLAHQHVVGFHGFFEDNDFVFVVLELCRRRSLLELHKRRKALTEPEARYYLRQIVLGCQYLHRNRVIHRDLKLGNLFLNEDLEVKIGDFGLATKVEYDGERKKTLCGTPNYIAPEVLSKKGHSFEVDVWSIGCIMYTLLVGKPPFETSCLKETYLRIKKNEYSIPKHINPVAASLIQKMLQTDPTARPTINELLNDEFFTSGYIPARLPITCLTIPPRFS
notes: domain: kinase domain (KD)

binding result [14]: no binding
B6: RXRα-LBD (ligand-binding domain of RXRα) (receptor)
chain: TSSANEDMPVERILEAELAVEPKTETYVEANMGLNPSSPNDPVTNICQAADKQLFTLVEWAKRIPHFSELPLDDQVILLRAGWNELLIASFSHRSIAVKDGILLATGLHVHRNSAHSAGVGAIFDRVLTELVSKMRDMQMDKTELGCLRAIVLFNPDSKGLSNPAEVEALREKVYASLEAYCKHKYPEQPGRFAKLLLRLPALRSIGLKCLEHLFFFKLIGDTPIDTFLMEMLEAPHQMT
notes: also called LBD of RXRα
